# Ends that are not written are not given here. * marks the point of attachment. R1 = nitroxide spin-labeled side chain, CC1(C)C=C(CS*)C(C)(C)N1[O]
# What was measured:
# [1] = tested on: 4E10 antibody; test: SPR (BIAcore) 4E10 binding to MPER variant or spin-labeled peptides on liposomes; conditions: for decrease of 4E10 binding to the lipid-embedded MPER: mutation of N671 to residues occurring in other viral strains; for 4E10 antibody binding to the spin-labeled MPER peptide: membrane-bound spin-labeled peptides, POPC/POPG liposomes
# [2] = Stability of MPER adsorption to lipid-enveloped PLGA microparticles in serum-containing medium (confocal imaging); type: physicochemical; conditions: culture medium containing 10% FCS in the presence of DCs, FITC-tagged MPER, qualitative; preliminary studies
# [3] = Aqueous solubility of the MPER segment; type: physicochemical
# [4] = tested on: liposomes; test: MPER binding to liposomes as a function of membrane composition; conditions: liposomes of DMPC, 4:1 DOPC:DOPG or HIV membrane-mimicking composition; preliminary studies
# [5] = biological target: MPER segment 662-683 of HXB2 strain HIV-1 gp160 (HIV-1 (HXB2 strain)); test: ITC at 25 °C, MPER peptide with virion membrane-like liposomes injected into 4E10 Fab
# [6] = biological target: MPER segment 662-683 of HXB2 strain HIV-1 gp160 (HIV-1 (HXB2 strain)); test: SPR, intact IgG over membrane-bound MPER, global fit with a two-step conformational change model
Substance,decrease of 4E10 binding to the lipid-embedded MPER [1],4E10 antibody binding to the spin-labeled MPER peptide [1],other results
"N671S: HXB2 MPER single amino acid variant, N671 to S (ELDKWASLWSWFNITNWLWYIK)",moderately,–,–
"N671D: HXB2 MPER single amino acid variant, N671 to D (ELDKWASLWDWFNITNWLWYIK)",severely,–,–
"N671T: HXB2 MPER single amino acid variant, N671 to T (ELDKWASLWTWFNITNWLWYIK)",severely,–,–
ELDKWASLWNWFNITNWLWYIK [MPER],–,–,stability of MPER adsorption [2]: stably adsorbed to lipid-enveloped PLGA microparticles for at least a few hours; solubility in aqueous solutions [3]: can only be solubilized in aqueous solutions in the presence of detergents or lipid vesicles; order of MPER binding affinity by liposome composition [4]: DMPC<DOPC/DOPG<HIV mimic
"N671G: HXB2 MPER single amino acid variant, N671 to G (ELDKWASLWGWFNITNWLWYIK)",severely,–,–
T676: MPER 662-683 peptide with cysteine substitution and nitroxide spin label R1 at position T676 (ELDKWASLWNWFNIC(R1)NWLWYIK),–,completely abolished,–
4E10 antigen-binding fragment (Fab),–,–,Kd [5]: 1000 nM; enthalpy change [5]: -25 kcal/mol; entropic energy change (-TDS) [5]: 16.9 kcal/mol
4E10 broadly neutralizing anti-gp41 antibody (intact IgG),–,–,Kd [6]: 10 nM
F673: MPER 662-683 peptide with cysteine substitution and nitroxide spin label R1 at position F673 (ELDKWASLWNWC(R1)NITNWLWYIK),–,completely abolished,–
W672: MPER 662-683 peptide with cysteine substitution and nitroxide spin label R1 at position W672 (ELDKWASLWNC(R1)FNITNWLWYIK),–,completely abolished,–
